The record followed here is patent US20180251431A1 (VERTEX PHARMACEUTICALS INCORPORATED, priority 2016, published 2018).

Data set [1] can be described thus: Metabolic intrinsic clearance in rat hepatocytes. It counts as in vitro ADME. To be noted: Sprague Dawley, cryopreserved hepatocytes in suspension, pH 7.5, 0.5 million cells/mL, incubation for 4 hours. On the procedure:
(§1) The metabolic intrinsic clearance (CLint) of Compound 87 was determined in human, monkey, dog, rat, and mouse hepatocytes. Cryopreserved human hepatocytes (Lot Hue50c), monkey hepatocytes (cynomolgus; Lot Cy328), dog hepatocytes (beagle, Lot Db235), rat hepatocytes (Sprague Dawley; NNH), and mouse hepatocytes (CD-1; Lot Mc522) were obtained from ThermoFisher (Paisley, UK). In separate experiments, compound 87 (1 μM) was incubated with hepatocytes from each species (0.5 million cells/mL, suspension) in Dulbecco's Modified Eagle's Medium (DMEM) supplemented with 4-(2-Hydroxyethyl)piperazine-1-ethanesulfonic acid (HEPES, 9 mM) and fructose (2.2 mM) (pH 7.5). Samples were quenched with acetonitrile and analyzed by LC-MS/MS. The mean CLint for Compound 87 in human, monkey, dog, rat, and mouse hepatocytes after incubation for 4 hours was determined to be ≤2.5, ≤2.5, 7.2, 23.6 and 10.7 μL/min/million cells. Based on these date, Compound 87 was low to moderately metabolized in hepatocytes in mouse, rat, dog, monkey, and human, and the rank order of stability at […] was approximately human>monkey>dog>mouse>rat. […] The metabolic stability of Compound 87 was not expected.

Data set [2] can be described thus: Metabolic intrinsic clearance in dog hepatocytes. It counts as in vitro ADME. As to conditions: beagle, cryopreserved hepatocytes in suspension, pH 7.5, 0.5 million cells/mL, incubation for 4 hours. On the procedure:
as §1

Another data set relates to ABCD1 KO mice. Description: Thermal pain sensitivity (Plantar test, Hargreaves apparatus) in ABCD1 KO mice. It counts as in vivo, mouse. To be noted: male ABCD1 KO mice. On the procedure:
ABCD1 KO mice were used as a functional model of AMN. ABCD1 KO mice display a progressive loss of sensitivity to painful thermal stimulus similar to symptoms observed in AMN patients such as decreased sensitivity to touch. To determine the effect of Compound 87 on thermal sensitivity, Compound 87 was dosed PO QD either prophylactically or therapeutically to determine whether ABCD1 KO mice have different latency thresholds for the Plantar test (Hargreaves apparatus) response compared to wild-type (WT) mice. For the prophylactic study, mice were tested beginning at 10 months of age (before the loss of pain sensitivity) using doses of either 5 or 20 mg/kg. For the therapeutic study, mice were tested beginning at 18 months of age, after there was already a significant loss of pain sensitivity, using doses of either 32 or 64 mg/kg. […] The Plantar test (using a Hargreaves apparatus) was used and measured the latency to respond to a thermal stimulus using the following protocol. An individual mouse was placed into an individual compartment with a glass floor for about 10-15 minutes until they were settled. Each individual mouse was given three trials with an infrared source on each hind paw (alternated hind paws each time, and waited 5 minutes between each trial). […] When a response was observed (paw withdrawal), the key/button was released and the latency to respond was recorded (in seconds).

The test system of the next data set is wild-type (WT) rats. Description: Reduction of blood C26:0 LPC in vivo in wild-type rats. More on the design: species or system rat. As to conditions: blood (DBS). On the procedure: A LC-MS/MS method of analyzing Lysophosphatidylcholine (LPC) in whole blood (dried blood spot card, DBS) and brain tissue samples was developed for measuring the abundance of saturated C16, C18, C20, C22, C24 and C26 LPC in DBS and brain samples. Whole blood was collected with Whatman DMPK-C DBS card at an approximate volume of 20 μL at each time point. Brain tissue was collected at the end point of the study. Samples were prepared and LC-MS/MS analysis was performed as described below.
For DBS bioanalysis, the DBS card was punched at 3 mm in diameter using a semi-automated DBS card puncher. To each punched spot 200 μL of pure methanol was added. The vial was vortexed at low speed for 20 minutes and centrifuged at 4000 rpm for 20 minutes. The clear supernatant was injected onto LC-MS/MS for analysis. For brain tissue bioanalysis, brain tissue was collected in a tared homogenization tube pre-filled with metal bead and weighted. To each sample vial two parts weight of methanol was added. The sample was homogenized using Precellys-24 at 5000 rpm for 20 seconds with one cycle. A 100 mg aliquot of homogenate was used for analysis. To each sample vial 400 μL of pure methanol was added. The vial was vortexed at low speed for 20 minutes and centrifuged at 4000 rpm for 20 minutes. […]
The supernatant obtained from each sample was injected into a LC-MS/MS system (Agilent Technologies, Santa Clara, Calif. and Applied Biosystems, Framingham, Mass.) for analysis. […] LPCs were detected by an AB Sciex API-6500 triple quadrupole MS with electrospray ionization in the mode of multiple reaction monitoring. Ions of Q1 were monitored at m/z of 496.6, 524.6, 552.6, 580.6, 608.6 and 636.6 for LPC 16:0, LPC 18:0, LPC 20:0, LPC 22:0, LPC 24:0 and LPC 26:0, respectively. […] C16:0 LPC levels were expressed as a concentration. […]
Compound 87 was dosed PO (orally by oral gavage) QD at 30, 100, and 300 mg/kg in wild-type (WT) rats (n=5) for 7 days (FIG. 2C). […] DBS cards were stored at 4° C. until they could be analyzed for LPC. DBS samples were prepared and analyzed using LC-MS/MS as described above.

The hepatocyte CLint is a measure of how fast metabolising enzymes remove a compound, apart from limits set by blood flow. A low value points to slow turnover. For `O=C(Nc1ccn(-c2ccnc(F)c2)n1)C1(c2ccccc2F)CC1` [Compound 87, 1-(2-fluorophenyl)-N-[1-(2-fluoro-4-pyridyl)pyrazol-3-yl]cyclopropanecarboxamide], the intrinsic clearance (hepatocyte CLint) at 1 μM in data set [1] was determined as 23.6 µL/min/1e6 cells; in data set [2], 7.2 µL/min/1e6 cells. Also, the “thermal pain sensitivity (response latency, Plantar test), prophylactic treatment” value in the data set with ABCD1 KO mice (5 or 20 mg/kg PO QD, dosing initiated at 10 months of age, 6 month period) was “reduced the loss of thermal pain sensitivity”. In addition, the “thermal pain sensitivity (response latency, Plantar test), therapeutic treatment” value in the data set on ABCD1 KO mice (32 or 64 mg/kg PO QD, dosing initiated at 18 months of age) was “reversed the loss of thermal pain sensitivity”. The entries for the “reduction in C26:0 LPC levels compared to vehicle controls” value in the data set with wild-type (WT) rats (30 mg/kg PO QD for 7 days), with wild-type (WT) rats (100 mg/kg PO QD for 7 days) and in the data set on wild-type (WT) rats (300 mg/kg PO QD for 7 days) were around 65%, “about 75%” and “about 85%”, respectively.
